Source: US12558320B2, “Method of preparing a solid dosage form and a lubricant” (Evonik Operations GmbH, priority 2019, dated 2026)

Assay: Quantification of stearic acid and palmitic acid in water after homogenization, centrifugation and filtration
Assay type: physicochemical
Method: For the quantification of stearic acid and palmitic acid in water from magnesium stearate alone 1 mg magnesium stearate was added in water under high shear homogenization and mixed for 15 min under continuous homogenization. After homogenization, the prepared dispersion was centrifuged to remove bigger particle size. The supernatant solution was then filtered through 0.2-micron nylon syringe filter and the filtrate was analyzed for content of stearic acid and palmitic acid. […] After homogenization, the prepared dispersion was centrifuged to remove bigger particle size. The supernatant solution was then filtered through 0.45 μm (B1) or 0.2 μm (B2) nylon syringe filter and the filtrate were analyzed for content of stearic acid and palmitic acid.

## Magnesium stearate
powder, unfiltered
  Palmitic acid: 49.35 % w/w
  Stearic acid: 50.64 % w/w
water, 0.2 μm filtered
  Palmitic acid: 2.91 % w/w
  Stearic acid: 0.00 % w/w
  Total fatty acid in media: 2.91%
